Source: US20130030017A1, “QUINOLINE DERIVATIVES AS ANTIBACTERIAL AGENTS” (priority 2005, published 2013)
Values after ≈ are worked out from the molar mass of the structure shown.

Tests used:
[1] = system: Streptococcus pneumoniae (ATCC6305); assay: Microtitre plate assay, IC90 determination (SPN 6305); type: cell-based; conditions: 90% inhibitory concentration for bacterial growth, 37° C., resazurin fluorescence; for IC90 SPN 6305: 24 hours; for IC90: Streptococcus pneumoniae, ATCC6305, 24 h
Procedure: (§1) The bacteria used in this study were grown overnight in flasks containing 100 ml Mueller-Hinton Broth (Becton Dickinson—cat. no. 275730) in sterile de-ionized water, with shaking, at 37° C. Stocks (0.5 ml/tube) were stored at −70° C. until use. Bacteria titrations were performed in microtiter plates and colony forming units (CFUs) were determined. In general, an inoculum level of approximately 100 CFUs was used for susceptibility testing.
(§2) Flat-bottom, sterile 96-well plastic microtiter plates were filled with 180 μl of sterile deionized water, supplemented with 0.25% BSA. Subsequently, stock solutions (7.8× final test concentration) of compounds were added in 45 μl volumes in column 2 Serial five-fold dilutions (45 μl in 180 μl) were made directly in the microtiter plates from column 2 to reach column 11. Untreated control samples with (column 1) and without (column 12) inoculum were included in each microtiter plate. Depending on the bacteria type, approximately 10 to 60 CFU per well of bacteria inoculum (100 TCID50), in a volume of 100 μl in 2.8× Mueller-Hinton broth medium, was added to the rows A to H, except column 12. The same volume of broth medium without inoculum was added to column 12 in row A to H. The cultures were incubated at 37° C. for 24 hours under a normal atmosphere (incubator with open air valve and continuous ventilation). At the end of incubation, one day after inoculation, the bacterial growth was quantitated fluorometrically. Therefore resazurin (0.6 mg/ml) was added in a volume of 20 μl to all wells 3 hours after inoculation, and the plates were re-incubated overnight. A change in colour from blue to pink indicated the growth of bacteria. The fluorescence was read in a computer-controlled fluorometer (Cytofluor Biosearch) at an excitation wavelength of 530 nm and an emission wavelength of 590 nm. The % growth inhibition achieved by the compounds was calculated according to standard methods. The IC90 (expressed in μg/ml) was defined as the 90% inhibitory concentration for bacterial growth.

[2] = system: Staphylococcus aureus (ATCC29213); assay: Microtitre plate assay, IC90 determination (STA 29213); type: cell-based; conditions: 90% inhibitory concentration for bacterial growth, 37° C., resazurin fluorescence; for IC90 STA 29213: 24 hours; for IC90: Staphylococcus aureus, ATCC29213, 24 h
Procedure: as §1, §2

[3] = system: Enterococcus faecalis (ATCC29212); assay: Microtitre plate assay, IC90 determination (EFA 29212); type: cell-based; conditions: 90% inhibitory concentration for bacterial growth, 37° C., resazurin fluorescence; for IC90 EFA 29212: 24 hours
Procedure: as §1, §2

[4] = system: Pseudomonas aeruginosa (ATCC27853); assay: Microtitre plate assay, IC90 determination (PAE 27853); type: cell-based; conditions: 90% inhibitory concentration for bacterial growth, 37° C., 24 hours, resazurin fluorescence
Procedure: as §1, §2

[5] = system: Streptococcus pyogens (ATCC8668); assay: Microtitre plate assay, IC90 determination (SPY 8668); type: cell-based; conditions: 90% inhibitory concentration for bacterial growth, 37° C., resazurin fluorescence; for IC90: Streptococcus, ATCC8668, 24 h; for IC90 SPY 8668: 24 hours
Procedure: as §1, §2

[6] = system: methicilline resistant Staphylococcus aureus (MRSA) (a clinical isolate from the University of Antwerp); assay: Microtitre plate assay, IC90 determination (STA RMETH); type: cell-based; conditions: 90% inhibitory concentration for bacterial growth, 37° C., 24 hours, resazurin fluorescence
Procedure: as §1, §2

CSc1nc2ccc(Br)cc2cc1C(c1ccc(Cl)cc1)C(O)(CCc1ccccc1)CCN(C)C (stereo not drawn) [Compound 32]
IC90 SPN 6305 [1]: 2.1 µg/mL (≈ 3.6 µM) | IC90 STA 29213 [2]: 9.3 µg/mL (≈ 15.9 µM) | melting point: 222 °C

COc1nc2ccc(Br)cc2cc1C(c1ccccc1)C(O)(CCc1ccc(F)cc1)CCN1CCCCC1 (stereo not drawn) [Compound 34]
IC90 SPN 6305 [1]: 9.4 µg/mL (≈ 15.9 µM) | IC90 STA 29213 [2]: 59.2 µg/mL (≈ 100 µM) | melting point: 194 °C

CNCCC(O)(CCc1ccc(F)cc1)C(c1ccccc1)c1cc2ccccc2nc1OC (stereo not drawn) [Compound 37]
IC90 [1]: 0.3 µg/mL (≈ 0.654 µM) | IC90 [2]: 2.9 µg/mL (≈ 6.32 µM) | melting point: 134 °C

CNCCC(O)(CCc1ccc(F)cc1)C(c1ccccc1)c1cc2cc(Br)ccc2nc1OC (stereo not drawn) [Compound 39]
IC90 [1]: 0.3 µg/mL (≈ 0.558 µM) | IC90 [2]: 1.7 µg/mL (≈ 3.16 µM) | melting point: 140 °C

COc1nc2ccc(Br)cc2cc1C(c1ccccc1)C(O)(CCN(C)C)Cc1cccc2ccccc12 (stereo not drawn) [Compound 41]
IC90 [1]: 2.3 µg/mL (≈ 4.04 µM) | IC90 STA 29213 [2]: 57.0 µg/mL (≈ 100 µM) | melting point: 112 °C

CCOCCOCCOc1nc2ccc(Br)cc2cc1C(c1ccccc1)C(O)(CCc1ccccc1)CCN(C)C (stereo not drawn) [Compound 43]
IC90 ([3]; Enterococcus faecalis, ATCC29212, 24 h): 10.1 µg/mL (≈ 15.9 µM) | IC90 PAE 27853 [4]: 10.1 µg/mL (≈ 15.9 µM) | IC90 [1]: 2.3 µg/mL (≈ 3.62 µM) | IC90 [5]: 10.1 µg/mL (≈ 15.9 µM) | IC90 STA 29213 [2]: 10.1 µg/mL (≈ 15.9 µM) | melting point: 94 °C

COc1nc2ccc(Br)cc2cc1C(c1ccc(C)cc1)C(O)(CCc1ccccc1)CCN(C)C (stereo not drawn) [Compound 65]
IC90 EFA 29212 [3]: 1.7 µg/mL (≈ 3.1 µM) | IC90 PAE 27853 [4]: 1.7 µg/mL (≈ 3.1 µM) | IC90 [1]: 0.8 µg/mL (≈ 1.46 µM) | IC90 [5]: 1.7 µg/mL (≈ 3.1 µM) | IC90 STA 29213 [2]: 3.9 µg/mL (≈ 7.12 µM) | IC90 [6]: 10.9 µg/mL (≈ 19.9 µM)

COc1nc2ccc(Br)cc2cc1C(c1ccc(C)cc1)C(O)(CCc1ccccc1)CCN(C)C (stereo not drawn) [Compound 66]
IC90 EFA 29212 [3]: 9.7 µg/mL (≈ 17.7 µM) | IC90 PAE 27853 [4]: 43.5 µg/mL (≈ 79.4 µM) | IC90 SPN 6305 [1]: 0.8 µg/mL (≈ 1.46 µM) | IC90 SPY 8668 [5]: 1.7 µg/mL (≈ 3.1 µM) | IC90 STA 29213 [2]: 1.7 µg/mL (≈ 3.1 µM) | IC90 STA RMETH [6]: 12.3 µg/mL (≈ 22.5 µM)

COc1nc2ccc(Br)cc2cc1C(c1ccc(Cl)cc1)C(O)(CCc1ccccc1)CCN(C)C (stereo not drawn) [Compound 69]
IC90 EFA 29212 [3]: 1.8 µg/mL (≈ 3.17 µM) | IC90 PAE 27853 [4]: 1.8 µg/mL (≈ 3.17 µM) | IC90 SPN 6305 [1]: 0.5 µg/mL (≈ 0.88 µM) | IC90 SPY 8668 [5]: 4.0 µg/mL (≈ 7.04 µM) | IC90 [2]: 1.8 µg/mL (≈ 3.17 µM) | IC90 [6]: 12.7 µg/mL (≈ 22.4 µM)

COc1nc2ccc(Br)cc2cc1C(c1ccc(Cl)cc1)C(O)(CCc1ccccc1)CCN(C)C (stereo not drawn) [Compound 70]
IC90 EFA 29212 [3]: 56.8 µg/mL (≈ 100 µM) | IC90 PAE 27853 [4]: 45.1 µg/mL (≈ 79.4 µM) | IC90 SPN 6305 [1]: 1.8 µg/mL (≈ 3.17 µM) | IC90 SPY 8668 [5]: 45.1 µg/mL (≈ 79.4 µM) | IC90 STA 29213 [2]: 1.8 µg/mL (≈ 3.17 µM) | IC90 STA RMETH [6]: 12.7 µg/mL (≈ 22.4 µM)

COc1ccc(C(c2cc3cc(Br)ccc3nc2OC)C(O)(CCc2ccccc2)CCN(C)C)cc1 (stereo not drawn) [Compound 74]
IC90 EFA 29212 [3]: 1.8 µg/mL (≈ 3.19 µM) | IC90 PAE 27853 [4]: 1.8 µg/mL (≈ 3.19 µM) | IC90 SPN 6305 [1]: 1.8 µg/mL (≈ 3.19 µM) | IC90 SPY 8668 [5]: 1.8 µg/mL (≈ 3.19 µM) | IC90 STA 29213 [2]: 1.8 µg/mL (≈ 3.19 µM) | IC90 [6]: 12.6 µg/mL (≈ 22.4 µM)
